What was measured:
MAO-A = target: T1, MAO-A (Homo sapiens, UniProt P21397); assay: MAO-A enzymatic activity assay (MAO-A Inhibitor Screening Kit, fluorimetric detection of H2O2); type: biochemical; conditions: 25°C, 15 min kinetic read; mean (95% confidence interval), three experiments
T1 construct: purchased BioVision, Inc, Milpitas, CA
T1 sequence (P21397 1-527): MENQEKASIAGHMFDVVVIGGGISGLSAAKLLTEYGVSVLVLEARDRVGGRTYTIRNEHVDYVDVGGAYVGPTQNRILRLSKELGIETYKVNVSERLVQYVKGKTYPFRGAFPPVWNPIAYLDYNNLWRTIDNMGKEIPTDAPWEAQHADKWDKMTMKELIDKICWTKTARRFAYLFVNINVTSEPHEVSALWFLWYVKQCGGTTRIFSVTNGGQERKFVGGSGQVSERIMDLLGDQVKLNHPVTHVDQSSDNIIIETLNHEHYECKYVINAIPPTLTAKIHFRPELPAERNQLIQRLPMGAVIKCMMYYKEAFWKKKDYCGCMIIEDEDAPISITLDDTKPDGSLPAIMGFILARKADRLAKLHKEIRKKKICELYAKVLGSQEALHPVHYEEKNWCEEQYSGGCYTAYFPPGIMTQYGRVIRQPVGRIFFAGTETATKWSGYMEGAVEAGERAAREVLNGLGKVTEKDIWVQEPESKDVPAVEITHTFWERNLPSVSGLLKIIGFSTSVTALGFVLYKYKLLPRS
Procedure: The experiments were conducted following the manufacturer’s (BioVision, Inc, Milpitas, CA) instructions and were based on the fluorimetric detection of H2O2, a byproduct of the enzymatic activity of MAO-A, by measuring the fluorescence (Excitation/Emission at 535/587 nm) kinetically at 25°C for 15 min using a Tecan Spark plate reader (Tecan Group Ltd, Männedorf, Switzerland).
Relative inhibition of MAO-A was calculated as a percentage using the following Eq. 2: %Relative inhibition=((Slope of EC−Slope of S)/Slope of EC)×100 (2)
The slopes for all samples, either containing Enzyme Control (EC) or test substance (S), were calculated by dividing the net change in relative fluorescence units (ΔRFU; RFU2–RFU1) by the time interval (Δt; t2 –t1).

WT human PAH = target: T2, WT human PAH (Homo sapiens, UniProt P00439); assay: PAH enzymatic activity assay (selectivity); type: biochemical; conditions: up to a concentration of 100 µM
T2 construct: made in house
T2 sequence (P00439 1-452): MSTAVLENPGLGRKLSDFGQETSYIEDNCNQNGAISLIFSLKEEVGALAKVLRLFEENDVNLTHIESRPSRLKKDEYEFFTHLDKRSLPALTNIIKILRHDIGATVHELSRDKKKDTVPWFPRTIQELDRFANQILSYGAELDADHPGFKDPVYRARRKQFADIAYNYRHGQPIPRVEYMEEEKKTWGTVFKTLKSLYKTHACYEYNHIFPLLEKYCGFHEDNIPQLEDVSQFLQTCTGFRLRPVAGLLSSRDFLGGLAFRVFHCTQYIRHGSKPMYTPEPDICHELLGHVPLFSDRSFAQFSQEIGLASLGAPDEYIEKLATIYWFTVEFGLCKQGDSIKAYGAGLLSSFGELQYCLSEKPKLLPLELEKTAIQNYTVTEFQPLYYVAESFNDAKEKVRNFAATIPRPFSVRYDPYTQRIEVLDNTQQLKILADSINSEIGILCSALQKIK
Procedure: Full-length WT TPH1 and TPH2 were expressed as N-terminal six-His-maltose-binding protein fusion proteins in pETM-41 and were cleaved and purified as described previously ([McKinney et al., 2004]; [Winge et al., 2007]). Human WT PAH and TH were expressed and isolated as described previously ([Flydal et al., 2012]; [Bezem et al., 2016]).
Purified WT human TPH2, PAH, and TH were used for this purpose, and the activity assays for each enzyme was performed as described previously ([Haavik and Flatmark, 1980]; [Winge et al., 2007]; [Aubi et al., 2015]; [Bezem et al., 2016]).

## COc1ccc2[nH]c([S+]([O-])Cc3ncc(C)c(OC)c3C)nc2c1 (centres unmarked) [Omeprazole]
MAO-A
  IC50: 89.4 µM
WT human PAH
  inhibition of PAH: no inhibition

Source: article PMC7726444 (Frontiers in Pharmacology, 2020)
